Measurements published in patent publication US8207156B2, “Substituted pyrazoline compounds, their preparation and use as medicaments” (Laboratorios Del Dr. Esteve, S.A., priority 2005, dated 2012).

How the values were obtained:
CB1 receptor [1] = molecular target: T1, CB1 receptor; assay: In-vitro determination of affinity to CB1/CB2-receptors (radioligand [3H]-CP55940 binding); settings: binding data per pharmacological methods part I, table does not say whether human transfected receptor or rat cerebellum
T1 construct: IC50 [nM]; radioligand [3H]-CP55940
Outline: (§1)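 Transfected human CB1/CB2 receptors were tested with [3H]-CP55940. In the modified Govaerts method, rat cerebellum membranes (100 µg protein) were incubated with 1 nM [3H]-CP55940 and compound for 1 h at 30 °C in Tris-HCl/MgCl2/EDTA/0.5% BSA, pH 7.4, with 10 µM HU-210 defining non-specific binding. Filter-bound radioactivity was counted in triplicate and analysed by non-linear regression.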

[2] = molecular target: recombinant human cannabinoid 1 receptor (CB1) (Homo sapiens, UniProt P21554); assay: In vitro determination of antagonism to CB1-receptor ([35S]GTPγS binding assay, CHO cell membranes); assay type: biochemical; settings: compound at 1 μM against agonist WIN 55,212-2 (3 nM to 3 μM); effect of Rimonabant (1 μM) defined as 100%
Chain of recombinant human cannabinoid 1 receptor (CB1) (P21554 whole entry): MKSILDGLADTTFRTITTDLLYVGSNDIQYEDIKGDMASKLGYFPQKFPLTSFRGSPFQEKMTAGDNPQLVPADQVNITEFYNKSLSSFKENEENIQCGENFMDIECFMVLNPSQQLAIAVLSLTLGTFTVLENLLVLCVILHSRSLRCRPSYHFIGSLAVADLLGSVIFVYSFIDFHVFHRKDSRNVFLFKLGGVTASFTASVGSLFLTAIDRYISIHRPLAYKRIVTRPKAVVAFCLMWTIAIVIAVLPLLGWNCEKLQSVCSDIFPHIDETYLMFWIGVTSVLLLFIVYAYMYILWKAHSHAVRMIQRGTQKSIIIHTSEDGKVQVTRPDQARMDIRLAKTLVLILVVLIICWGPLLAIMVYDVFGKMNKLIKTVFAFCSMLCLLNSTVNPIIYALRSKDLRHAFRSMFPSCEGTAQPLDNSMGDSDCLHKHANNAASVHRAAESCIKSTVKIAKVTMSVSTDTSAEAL
Outline: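 Membranes from CHO cells stably expressing human CB1 (15 μg protein/well) incubated 60 min at 30° C., pH 7.4, with 5 μM GDP, saponin and 0.5 nM [35S]GTPγS, compound at 1 μM final, with or without WIN 55,212-2 (3 nM–3 μM). Bound radioactivity via filtration; basal subtracted, antagonism scaled to WIN 55,212-2 ± Rimonabant (1 μM) window as 100%.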

CB1 receptor [3] = molecular target: T2, CB1 receptor (UniProt P20272); assay: In-vitro determination of affinity to CB1/CB2-receptors (radioligand [3H]-CP55940 binding); settings: for Inhibition [%], 10^−7 M: compound at 10^−7 M; for Inhibition [%], 10^−8 M: compound at 10^−8 M
T2 construct: other: compound at 10^−7 M; radioligand [3H]-CP55940; other: compound at 10^−8 M
Outline: as §1

Row | IC50 (CB1 receptor [1]) [nM] | Antagonism [%] [2] [%] | Inhibition [%], 10^−7 M (CB1 receptor [3]) [%] | Inhibition [%], 10^−8 M (CB1 receptor [3]) [%] | IC50 (CB1 receptor [1]; hydrochloride) [nM] | Compound | Inhibition [%], 10^−7 M (CB1 receptor [3]; hydrochloride) [%] | Inhibition [%], 10^−8 M (CB1 receptor [3]; hydrochloride) [%]
1 | 250 | 78 |  |  |  | CC1CCCC(C)N1NC(=O)C1=NN(c2ccc(Cl)cc2Cl)C(c2ccc(Cl)cc2)C1 (stereo not shown) [Example 12, 5-(4-Chloro-phenyl)-1-(2,4-dichloro-phenyl)-4,5-dihydro-1H-pyrazole-3-carboxylic acid (2,6-dimethyl-piperidin-1-yl)-amide] |  | 
2 | 25.1 | 78 |  |  |  | CC1CCCCC1NC(=O)C1=NN(c2ccc(Cl)cc2Cl)C(c2ccc(Cl)cc2)C1 (stereo not shown) [Example 18, 5-(4-Chloro-phenyl)-1-(2,4-dichloro-phenyl)-4,5-dihydro-1H-pyrazole-3-carboxylic acid (2-methyl-cyclohexyl)-amide] |  | 
3 | 79.4 | 62 |  |  |  | O=C(C1=NN(c2ccc(Cl)cc2Cl)C(c2ccc(Cl)cc2)C1)N1CCC2CCCCC2C1 (stereo not shown) [Example 22, [5-(4-Chloro-phenyl)-1-(2,4-dichloro-phenyl)-4,5-dihydro-1H-pyrazol-3-yl]-(octahydro-isoquinolin-2-yl)-methanone] |  | 
4 | 39.8 | 91 |  |  |  | O=C(NN1CCCCC1)C1=NN(c2ccc(Cl)cc2Cl)C(c2ccc(F)cc2)C1 (stereo not shown) [Example 23, 1-(2,4-Dichloro-phenyl)-5-(4-fluoro-phenyl)-4,5-dihydro-1H-pyrazole-3-carboxylic acid piperidin-1-ylamide] |  | 
5 | 280 | 81 |  |  |  | O=C(NC1CCCC1)C1=NN(c2ccc(Cl)cc2Cl)C(c2ccc(Cl)cc2)C1 (stereo not shown) [Example 37, 5-(4-Chloro-phenyl)-1-(2,4-dichloro-phenyl)-4,5-dihydro-1H-pyrazole-3-carboxylic acid cyclopentylamide] |  | 
6 | 39.8 | 81 |  |  |  | CC1CCCC(NC(=O)C2=NN(c3ccc(Cl)cc3Cl)C(c3ccc(Cl)cc3)C2)C1 (stereo not shown) [Example 57, 5-(4-Chloro-phenyl)-1-(2,4-dichloro-phenyl)-4,5-dihydro-1H-pyrazole-3-carboxylic acid (3-methyl-cyclohexyl)-amide] |  | 
7 | 562 | 63 |  |  |  | O=C(NN1CCN(C2CCCC2)CC1)C1=NN(c2ccc(Cl)cc2Cl)C(c2ccc(Br)cc2)C1 (stereo not shown) [Example 64, 5-(4-Bromo-phenyl)-1-(2,4-dichloro-phenyl)-4,5-dihydro-1H-pyrazole-3-carboxylic acid (4-cyclopentyl-piperazin-1-yl)-amide] |  | 
8 | 794 | 44 |  |  |  | O=C(C1=NN(c2ccc(Cl)cc2Cl)C(c2ccc(Cl)cc2)C1)N1CC=CCC1 (stereo not shown) [Example 74, [5-(4-Chloro-phenyl)-1-(2,4-dichloro-phenyl)-4,5-dihydro-1H-pyrazol-3-yl]-(3,6-dihydro-2H-pyridin-1-yl)-methanone] |  | 
9 |  |  | 76.1 | 23.4 | 32 | COc1ccc(C2CC(C(=O)NN3CCCCC3)=NN2c2ccc(Cl)cc2Cl)cc1.Cl (stereo not shown) [Example 106, 1-(2,4-Dichloro-phenyl)-5-(4-methoxy-phenyl)-4,5-dihydro-1H-pyrazole-3-carboxylic acid piperidin-1-ylamide hydrochloride] |  | 
10 | 106 |  | 61.8 | 46.3 |  | COc1ccc(C2CC(C(=O)NN3CCc4ccccc43)=NN2c2ccc(Cl)cc2Cl)cc1.Cl (stereo not shown) [Example 112, 1-(2,4-Dichloro-phenyl)-5-(4-methoxy-phenyl)-4,5-dihydro-1H-pyrazole-3-carboxylic acid (2,3-dihydro-indol-1-yl)-amide hydrochloride] |  | 
11 |  |  | 68.7 | 47.6 | 24 | COc1ccc(C2CC(C(=O)NN3CCCCCC3)=NN2c2ccc(Cl)cc2Cl)cc1.Cl (stereo not shown) [Example 114, 1-(2,4-Dichloro-phenyl)-5-(4-methoxy-phenyl)-4,5-dihydro-1H-pyrazole-3-carboxylic acid azepan-1-ylamide hydrochloride] |  | 
12 | 18 |  | 79.3 | 41.4 |  | COc1ccc(C2CC(C(=O)NN3CCCCCC3)=NN2c2ccc(Cl)cc2Cl)cc1 (stereo not shown) [Example 114A, 1-(2,4-Dichloro-phenyl)-5-(4-methoxy-phenyl)-4,5-dihydro-1H-pyrazole-3-carboxylic acid azepan-1-ylamide] |  | 
13 | 52 |  | 67.7 | 33.1 |  | O=C(NC1CCCCCC1)C1=NN(c2ccc(Cl)cc2Cl)C(c2ccc(Br)cc2)C1 (stereo not shown) [Example 130, 5-(4-Bromo-phenyl)-1-(2,4-dichloro-phenyl)-4,5-dihydro-1H-pyrazole-3-carboxylic acid cycloheptylamide] |  | 
14 | 115 |  | 70.2 | 42.9 |  | O=C(NC1CCCCCC1)C1=NN(c2ccc(Cl)cc2Cl)C(c2ccc(F)cc2)C1 (stereo not shown) [Example 131, 5-(4-Fluorophenyl)-1-(2,4-dichloro-phenyl)-4,5-dihydro-1H-pyrazole-3-carboxylic acid cycloheptylamide] |  | 
15 |  |  | 78.5 | 40.2 | 83 | Cl.O=C(NN1CCCCC1)C1=NN(c2ccc(Cl)cc2Cl)C(c2ccc(F)cc2)C1 (stereo not shown) [Example 135, 1-(2,4-Dichloro-phenyl)-5-(4-fluoro-phenyl)-4,5-dihydro-1H-pyrazole-3-carboxylic acid piperidin-1-ylamide hydrochloride] |  | 
16 | 12 |  | 71.8 | 35.2 |  | O=C(NN1CCCCCCC1)C1=NN(c2ccc(Cl)cc2Cl)C(c2ccc(Br)cc2)C1 (stereo not shown) [Example 146, 5-(4-bromo-phenyl)-1-(2,4-dichloro-phenyl)-4,5-dihydro-1H-pyrazole-3-carboxylic acid azocan-1-ylamide] |  | 
17 | 54 |  | 63.4 | 24.0 |  | O=C(NN1CCCCCCC1)C1=NN(c2ccc(Cl)cc2Cl)C(c2ccc(F)cc2)C1 (stereo not shown) [Example 147, 5-(4-fluoro-phenyl)-1-(2,4-dichloro-phenyl)-4,5-dihydro-1H-pyrazole-3-carboxylic acid azocan-1-ylamide] |  | 
18 | 32 |  | 82.3 | 67.5 |  | O=C(N[C@H]1CCCC[C@@H]1OCc1ccccc1)C1=NN(c2ccc(Cl)cc2Cl)C(c2ccc(Cl)cc2)C1 (stereo partly drawn) [Example 151, N-((1S,2S)-2-(benzyloxy)cyclohexyl)-5-(4-chlorophenyl)-1-(2,4-dichlorophenyl)-4,5-dihydro-1H-pyrazole-3-carboxamide] |  | 
19 | 119 |  | 58 | 41.2 |  | O=C(N[C@@H]1CCCC[C@H]1OCc1ccccc1)C1=NN(c2ccc(Cl)cc2Cl)C(c2ccc(Cl)cc2)C1 (stereo partly drawn) [Example 178, N-((1R,2R)-2-(benzyloxy)cyclohexyl)-5-(4-chlorophenyl)-1-(2,4-dichlorophenyl)-4,5-dihydro-1H-pyrazole-3-carboxamide] |  | 
20 |  |  | 50.6 | 33.7 | 24 | Cl.O=C(NN1CCc2ccccc21)C1=NN(c2ccc(Cl)cc2Cl)[C@@H](c2ccc(Cl)cc2)C1 [Example 181, (R)-5-(4-Chloro-phenyl)-1-(2,4-dichloro-phenyl)-4,5-dihydro-1H-pyrazole-3-carboxylic acid (2,3-dihydro-indol-1-yl)-amide hydrochloride] |  | 

Row | Compound | IC50 (CB1 receptor [1]) [nM] | Antagonism [%] [2] [%] | Inhibition [%], 10^−7 M (CB1 receptor [3]) [%] | Inhibition [%], 10^−8 M (CB1 receptor [3]) [%] | IC50 (CB1 receptor [1]; hydrochloride) [nM] | Inhibition [%], 10^−7 M (CB1 receptor [3]; hydrochloride) [%] | Inhibition [%], 10^−8 M (CB1 receptor [3]; hydrochloride) [%]
21 | O=C(NN1CC2CCCC2C1)C1=NN(c2ccc(Cl)cc2Cl)C(c2ccc(Br)cc2)C1 (stereo not shown) [Example 63, 5-(4-Bromo-phenyl)-1-(2,4-dichloro-phenyl)-4,5-dihydro-1H-pyrazole-3-carboxylic acid (hexahydro-cyclopenta[c]pyrrol-2-yl)-amide] | 25.1 | 119 |  |  |  |  | 
22 | Cl.O=C(NN1CCc2ccccc21)C1=NN(c2ccc(Cl)cc2Cl)C(c2ccc(Br)cc2)C1 (stereo not shown) [Example 66, 5-(4-Bromo-phenyl)-1-(2,4-dichloro-phenyl)-4,5-dihydro-1H-pyrazole-3-carboxylic acid (2,3-dihydro-indol-1-yl)-amide hydrochloride] | 100 | 86 |  |  |  |  | 
23 | O=C(NN1CCCCCC1)C1=NN(c2ccc(Cl)cc2Cl)C(c2ccc(Br)cc2)C1 (stereo not shown) [Example 68, 5-(4-Bromo-phenyl)-1-(2,4-dichloro-phenyl)-4,5-dihydro-1H-pyrazole-3-carboxylic acid azepan-1-ylamide] | 39.8 | 98 |  |  |  |  | 
24 | COc1ccc(C2CC(C(=O)NN3CC4CCCC4C3)=NN2c2ccc(Cl)cc2Cl)cc1.Cl (stereo not shown) [Example 109, 1-(2,4-Dichloro-phenyl)-5-(4-methoxy-phenyl)-4,5-dihydro-1H-pyrazole-3-carboxylic acid (hexahydro-cyclopenta[c]pyrrol-2-yl)-amide hydrochloride] |  |  |  |  | 16 | 80.6 | 44
25 | COc1ccc(C2CC(C(=O)NN3CC4CCCC4C3)=NN2c2ccc(Cl)cc2Cl)cc1.Cl (stereo not shown) [Example 109A, 1-(2,4-Dichloro-phenyl)-5-(4-methoxy-phenyl)-4,5-dihydro-1H-pyrazole-3-carboxylic acid (hexahydro-cyclopenta[c]pyrrol-2-yl)-amide] | 15 |  | 74.2 | 33.5 |  |  | 
